Test results from patent US11040937B2, “Amide derivative” (TOHOKU UNIVERSITY, priority 2014, dated 2021).

Tested on: OPN production in A549 cells
Test: OPN production in culture supernatant by ELISA, per mg cell protein
Assay type: cell-based, human
Conditions: for amount of the OPN production vs control group: 2 days, significance level less than 1%
Description: Brefelamide (Compound 1) was added to a culture liquid containing cells of human liver cancer-derived cell line HepG2, human non-small cell lung cancer-derived cell line A549, human renal cell carcinoma-derived cell line OUR-10, or human pancreatic cancer-derived cell line QGP-1, and the amount of OPN in the culture supernatant after 2 days was measured using Human Osteopontin Immunoassay kit (R&D systems). The confirmation test was performed by comparison of the OPN amount of Compound 1-treated group with that of DMSO-treated group (control group). In addition, Compounds 6, 19, 26, and 38 which are brefelamide derivatives were added to a culture liquid containing cells of human non-small cell lung cancer-derived cell line A549, and a similar confirmation test to the above-mentioned test was performed.
Compounds 1, 6, 19, 26, and 38 have also a cell growth inhibitory effect. Thus, in order to properly evaluate the inhibitory effect of the compounds on the OPN production, the 1×CCLR solution used in luciferase assay was added to cells remaining in each well after removal of culture supernatant to prepare a cell lysate, and the amount of protein in the cell lysate was measured using BCA Protein Assay Kit (Thermo Scientific). The influence of Compound 1 on the amount of the OPN production was evaluated by comparison of the amount of OPN per milligram of protein.
HepG2 cells or A549 cells were suspended in DMEM medium containing 10% FCS and 1% P/S at 4×10^4 cells/mL to obtain a cell suspension, and the cell suspension was dispensed into each well of a 24-well plate in an amount of 500 μL. In order to perform the test in triplicate, 3 wells were prepared for each control group, and 3 wells were prepared for each test compound-treated group at each concentration. The 24-well Plate was incubated in a CO2 incubator (at 37° C., and 3% CO2) for 24±4 hours.
Compound 1, 6, 19, 26, and 38 which are test compounds were dissolved in DMSO to prepare a 50 mmol/L solution of each compound, and the solutions were stored at −80° C. The solution of Compound 1 was diluted with DMSO to prepare 2.5 mmol/L and 5 mmol/L solutions (FIG. 1), 3.125 mmol/L and 6.25 mmol/L solutions (FIG. 2), 6.25 mmol/L and 12.5 mmol/L solutions (FIG. 3), or 5 mmol/L and 10 mmol/L solutions (FIG. 4). The two solutions of Compound 1 at different concentrations were added in an amount of 2 μL per well to wells in which HepG2, A549, OUR-10, or QGP-1 cells were culture, respectively. Only DMSO was added in an amount of 2 μL to each control well.
Similarly, the 50 mmol/L solution of Compound 6 was stared at −80° C., and the solution was diluted with DMSO to prepare 2.5 mmol/L and 5 mmol/L solutions (FIG. 5). The two solutions of Compound 6 at different concentrations were added in an amount of 2 μL per well to wells in which A549 cells were cultured. Only DMSO was added in an amount of 2 μL to the control well.
Also, the 50 mmol/L solutions of Compounds 19, 26, and 38 were stored at −80° C., and each solution was diluted with DMSO to prepare 3.125 mmol/L and 6.25 mmol/L solutions (FIGS. 8 to 10). The two solutions of Compound 19, 26, or 38 at different concentrations were added in an amount of 2 μL per well to wells in which A549 cells were cultured, respectively. Only DMSO was added in an amount of 2 μL to each control well.
The 24-well plate was shaken to mix the solution in each well, and was then incubated in a CO2 incubator (at 37° C. and 5% CO2) for 48±4 hours. Then, the total amount of the resulting culture supernatant was transferred into a 1.5 mL tube, and D-PBS(−) (500 μL) was added to each well containing cells.
The 24-well plate was gently shaken to remove D-PBS(−), and then 5×CCLR used in luciferase assay was diluted to 5 times with water to prepare 1×CCLR. The prepared 1×CCLR was dispensed into each well in an amount of […]. The 24-well plate was then rocked on a rocking shaker for 15 minutes. […]

[1] = concentration increased from 12.5 μmol/L to 25 μmol/L

SMILES | amount of the OPN production vs control group (10 μmol/L) | amount of the OPN production vs control group (20 μmol/L) | OPN production, dependence on concentration (concentration increased from 10 μmol/L to 20 μmol/L) | amount of the OPN production vs control group (12.5 μmol/L) | amount of the OPN production vs control group (25 μmol/L) | OPN production, dependence on concentration [1]
COc1ccc(Oc2cccc(C(=O)CCNC(=O)c3ccc(O)cc3)c2N)cc1 [Compound 6, N-(3-(2-Amino-3-(4-methoxyphenoxy)phenyl)-3-oxopropyl)-4-hydroxybenzamide] | significantly inhibited | significantly inhibited | inhibited depending on the concentration | – | – | –
Nc1ccc(C(=O)NCCC(=O)c2cccc(Oc3ccc(Cl)cc3)c2N)cc1 [Compound 19, N-(3-(2-Amino-3-(4-chlorophenoxy)phenyl)-3-oxopropyl)-4-aminobenzamide] | – | – | – | significantly inhibited | significantly inhibited | inhibited depending on the concentration
COc1ccc(Oc2cccc(NC(=O)CCNC(=O)c3ccc(O)cc3)c2)cc1 [Compound 26, N-(3-(3-(4-Methoxyphenoxy)phenylamino)-3-oxopropyl)-4-hydroxybenzamide] | – | – | – | – | – | inhibited depending on the concentration
O=C(CCNC(=O)c1ccc(O)cc1)Nc1cccc(Oc2ccc(Cl)c(Cl)c2)c1 [Compound 38, N-(3-(3-(3,4-dichlorophenoxy)phenylamino)-3-oxopropyl)-4-hydroxybenzamide] | – | – | – | significantly inhibited | significantly inhibited | inhibited depending on the concentration
